Each structure is given as a SMILES string. Values after ≈ are worked out from the molar mass of the structure shown.

The values that follow come from ChEMBL document CHEMBL4296182, “CO-ADD screening of NIH NCI Diversity Set V”.

The subject of one test is Acinetobacter baumannii. The experiment in a line: microbe, parasite or virus in culture. Conditions: ATCC 19606, 18 h, ASSAY_TEST Inhibition of Bacterial Growth, detection method Absorption (OD600), MEDIA CAMHB, plate type 384well, NBS, CORNING #3640.
Another test has as its system Pseudomonas aeruginosa. The experiment in a line: microbe, parasite or virus in culture. Conditions: ATCC 27853, 18 h, ASSAY_TEST Inhibition of Bacterial Growth, detection method Absorption (OD600), MEDIA CAMHB, plate type 384well, NBS, CORNING #3640.
In another test the test system is Klebsiella pneumoniae. The experiment in a line: microbe, parasite or virus in culture. Conditions: ATCC 700603, 18 h, ASSAY_TEST Inhibition of Bacterial Growth, detection method Absorption (OD600), MEDIA CAMHB, plate type 384well, NBS, CORNING #3640.
The next test has as its system Escherichia coli. In words: microbe, parasite or virus in culture. Conditions: ATCC 25922, 18 h, ASSAY_TEST Inhibition of Bacterial Growth, detection method Absorption (OD600), MEDIA CAMHB, plate type 384well, NBS, CORNING #3640.
The test system of another test is Candida albicans. In words: microbe, parasite or virus in culture. The following applies: ATCC 90028, ASSAY_TEST Inhibition of Fungal Growth, detection method Absorption (OD530), plate type 384well, NBS, CORNING #3640.
The next test has as its system Staphylococcus aureus. In words: microbe, parasite or virus in culture. The following applies: ATCC 43300, 18 h, ASSAY_TEST Inhibition of Bacterial Growth, detection method Absorption (OD600), MEDIA CAMHB, plate type 384well, NBS, CORNING #3640.
In a further test the test system is HEK293. In words: cells. In kind it is functional. Conditions: Homo sapiens, ATCC CRL1573, HEK293; ASSAY_TEST Inhibition of Cell Viability; detection method Resazurin; Fluorescence (ex560/em590); MEDIA DMEM with 10% FBS; plate type 384well; TC; CORNING #3712; time 18 hr. In general terms: The colour change of resazurin is a common sign of viable cells or microbes.

Description for Acinetobacter baumannii: Antibacterial activity against Acinetobacter baumannii ATCC 19606 (CO-ADD:GN_034); MIC in CAMBH media using NBS plates, by OD600
Description for Candida albicans: Antifungal activity against Candida albicans ATCC 90028 (CO-ADD:FG_001); MIC in YNB media using NBS plates, by OD630
Description for Cryptococcus neoformans: Antifungal activity against Cryptococcus neoformans H99 ATCC 208821 (CO-ADD:FG_002); MIC in YNB media using NBS plates, by Resazurin OD(600-570)
Description for Escherichia coli: Antibacterial activity against Escherichia coli ATCC 25922 (CO-ADD:GN_001); MIC in CAMBH media using NBS plates, by OD(600)
Description for Klebsiella pneumoniae: Antibacterial activity against Klebsiella pneumoniae MDR ATCC 70063 (CO-ADD:GN_003); MIC in CAMBH media using NBS plates, by OD(600)
Description for Pseudomonas aeruginosa: Antibacterial activity against Pseudomonas aeruginosa ATCC 27853 (CO-ADD:GN_042); MIC in CAMBH media using NBS plates, by OD(600)
Description for Staphylococcus aureus: Antibacterial activity against Staphylococcus aureus MRSA ATCC 43300 (CO-ADD:GP_020); MIC in CAMBH media, using NBS plates, by OD(600)

As for `Nc1nc(N)c2cc(Sc3ccc4ccccc4c3)ccc2n1`, the MIC in the test with Acinetobacter baumannii is more than 10 µM; against Pseudomonas aeruginosa it was more than 10 µM; in the test with Klebsiella pneumoniae, more than 10 µM; with Escherichia coli, 5 µM (≈ 1.59 µg/mL); against Candida albicans, more than 10 µM; in the test on Cryptococcus neoformans, more than 10 µM. Also, in the test with Staphylococcus aureus, the MIC was found to be 0.156 µM (≈ 0.0498 µg/mL). This compound registered a CC50 in the test with HEK293 of 4.64 µM.
Consider `CSc1nc(C)c(Br)c(N2CC2)n1`, for which the MIC against Acinetobacter baumannii, against Pseudomonas aeruginosa, in the test on Klebsiella pneumoniae, with Escherichia coli, with Candida albicans and against Cryptococcus neoformans was more than 10 µM in each case. Further, the MIC against Staphylococcus aureus is more than 10 µM. In addition, in the test with HEK293, the cytotoxic concentration (CC50) was more than 10 µM.
Consider `O=C(c1cccnc1)C1Cc2ccccc2C1=O` (stereo not drawn), for which the MIC in the test with Acinetobacter baumannii is more than 10 µM; in the test on Pseudomonas aeruginosa, more than 10 µM; in the test on Klebsiella pneumoniae, 5 µM (≈ 1.19 µg/mL); in the test with Escherichia coli, more than 10 µM; against Candida albicans, more than 10 µM; with Cryptococcus neoformans, more than 10 µM. In the test with Staphylococcus aureus, this compound displayed an MIC of more than 10 µM. Also, the CC50 in the test with HEK293 is more than 10 µM.
`O=C(O)c1[nH]c(=O)[nH]c(=O)c1F`: the MIC against Acinetobacter baumannii, in the test with Pseudomonas aeruginosa, against Klebsiella pneumoniae, in the test on Escherichia coli, with Candida albicans and in the test with Cryptococcus neoformans was more than 10 µM throughout. Further, in the test with Staphylococcus aureus, the MIC is more than 10 µM. Further, in the test with HEK293, the 50% cytotoxic concentration (CC50) was more than 10 µM.
Turning to `C#CC(c1ccccc1)(c1ccccc1)n1ccnc1`, the MIC against Acinetobacter baumannii, against Pseudomonas aeruginosa, against Klebsiella pneumoniae, against Escherichia coli, in the test with Candida albicans and against Cryptococcus neoformans was more than 10 µM throughout. This compound also registered an MIC against Staphylococcus aureus of more than 10 µM. This compound gave a CC50 in the test with HEK293 of more than 10 µM.
In the case of `CN1CCN(c2ccc([N+](=O)[O-])c3no[n+]([O-])c23)CC1`, the MIC with Acinetobacter baumannii, in the test on Pseudomonas aeruginosa, in the test on Klebsiella pneumoniae, against Escherichia coli, against Candida albicans and in the test on Cryptococcus neoformans was more than 10 µM in each case. Also, the MIC in the test on Staphylococcus aureus amounted to 2.5 µM (≈ 0.698 µg/mL). In addition, half-maximal cytotoxicity in the test on HEK293 (CC50) was put at 0.755 µM.

As usually defined, the CC50 is the concentration that lowers cell viability or growth by half.
